A word on the IC50: it is the concentration needed to halve the response being measured. The low end stands for higher potency, the high end for lower potency.

Structures are written as SMILES.

The subject of one assay is MV4-11 cells. Kind of assay: MV4-11 cellular proliferative assay, Assay Format A (CellTiter-Glo, 120 hours). It counts as cell-based. Conditions: Homo sapiens. Here is the method: An MV4-11 proliferation assay was used to test the ability of compounds to reduce cell viability. MV4-11 cells (ATCC #CRL9591) were grown in IMDM medium (11510596, Gibco) supplemented with 10% fetal bovine serum (F7524, Gibco) and 1% Penicillin/Streptomycin (15140-122, Gibco) at 37° C. with 5% CO2. Cells were seeded in 384-well Elplasia plates (4447, Corning) at a density of 50 cells/well and treated with vehicle (DMSO) or compounds (10 serial semi-log dilutions, 30 μM as top concentration).
After 120 hours of treatment, cells were incubated for 10 min at RT with the CellTiter-Glo (CTG) reagent (G7571, Promega). Measurement of the luminescence signal was performed on a microplate reader (Ensight, PerkinElmer). CTG reagent measures the amount of ATP, which is directly proportional to the number of cells, to determine the number of viable cells in culture.
The data were analysed as follows:
where x is the measured raw signal value of a well, (cr) is the median of the measured signal values for the Central Reference (DMSO) wells on a plate, (sr) is the median of the measured signal values for the Scale Reference (reference compound) wells on a plate.
where the experimental set-up assumes the Hill parameters in certain ranges: S0~Central Reference (CR) from normalization (=Bottom), Sinf~Scale Reference (SR) from normalization (=Top), nHill~1, AC50~within the measured concentration range.
In general terms: ATP-based viability assays read luminescence as a measure of living cells.

The next assay has as its target T1, MLLT1 (Homo sapiens, UniProt Q03111).
T1 construct: host or cells: MV4-11
T1 sequence (Q03111 1-559): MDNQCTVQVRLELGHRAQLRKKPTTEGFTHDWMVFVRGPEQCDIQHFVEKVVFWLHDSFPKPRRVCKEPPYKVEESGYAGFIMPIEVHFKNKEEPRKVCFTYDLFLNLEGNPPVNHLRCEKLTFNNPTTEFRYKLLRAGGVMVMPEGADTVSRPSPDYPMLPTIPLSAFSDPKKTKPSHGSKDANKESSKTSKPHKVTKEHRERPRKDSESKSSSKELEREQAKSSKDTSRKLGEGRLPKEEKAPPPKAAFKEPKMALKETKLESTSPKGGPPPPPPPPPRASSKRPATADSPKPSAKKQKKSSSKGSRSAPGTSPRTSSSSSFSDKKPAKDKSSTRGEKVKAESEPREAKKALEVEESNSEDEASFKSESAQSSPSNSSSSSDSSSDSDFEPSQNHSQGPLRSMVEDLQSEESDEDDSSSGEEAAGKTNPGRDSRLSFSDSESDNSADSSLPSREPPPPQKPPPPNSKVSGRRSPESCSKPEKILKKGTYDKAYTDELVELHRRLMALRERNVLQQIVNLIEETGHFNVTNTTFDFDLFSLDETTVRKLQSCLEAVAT
Kind of assay: MLLT1 degradation assay in MV4-11 cells (JESS chemiluminescent detection), three concentrations, 24 h. It counts as cell-based. To be noted: with respect to DMSO control. An outline of the steps:
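MV4-11 cells treated 24 h at 37° C, 5% CO2 with 1000, 100 and 10 nM compound (0.1% DMSO final). MLLT1 quantified by automated capillary chemiluminescent immunodetection; band peak area expressed as % degradation relative to DMSO control.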

Molecule `CN1CCC[C@H]1c1cc2cnc(NC(=O)c3ccc(CCCNc4cccc5c4C(=O)N(C4CCC(=O)NC4=O)C5=O)cc3)cc2[nH]1` (stereo partly drawn) [Example 37, 4-(3-{[2-(2,6-dioxopiperidin-3-yl)-1,3-dioxoisoindol-4-yl]amino}propyl)-N-{2-[(2S)-1-methylpyrrolidin-2-yl]-1H-pyrrolo[3,2-c]pyridin-6-yl}benzamide] came in with an IC50 in the assay on MV4-11 cells of at most 100 nM. In addition, at MLLT1, the “MLLT1% Degradation @ 0.01 μM” value is on record as “B (Category B: 50% ≤ B < 75% degradation)”, the “MLLT1% Degradation @ 0.1 μM” value is given as “A (Category A: A ≥ 75% degradation)” and the “MLLT1% Degradation @ 1 μM” value is recorded as “A (Category A: A ≥ 75% degradation)”.
Regarding `CN1CCC[C@@H]1c1cc2cnc(NC(=O)c3cccc(CCCNc4cccc5c4C(=O)N(C4CCC(=O)NC4=O)C5=O)c3)cc2[nH]1` (stereo partly drawn) [Example 45, 3-(3-((2-(2,6-dioxopiperidin-3-yl)-1,3-dioxoisoindolin-4-yl)amino)propyl)-N-(2-((R)-1-methylpyrrolidin-2-yl)-1H-pyrrolo[3,2-c]pyridin-6-yl)benzamide], the 50% inhibitory concentration (IC50) with MV4-11 cells was at most 100 nM. On MLLT1, the “MLLT1% Degradation @ 0.01 μM” value was “A (Category A: A ≥ 75% degradation)”, the “MLLT1% Degradation @ 0.1 μM” value is on record as “A (Category A: A ≥ 75% degradation)” and the “MLLT1% Degradation @ 1 μM” value is given as “A (Category A: A ≥ 75% degradation)”.
`CN1CCC[C@@H]1c1cc2cnc(NC(=O)c3ccc(-c4cnn(CCCC5CCN(c6cccc7c6C(=O)N(C6CCC(=O)NC6=O)C7=O)CC5)c4)cc3)cc2[nH]1` (stereo partly drawn) [Example 34, 4-[1-(3-{1-[2-(2,6-dioxopiperidin-3-yl)-1,3-dioxoisoindol-4-yl]piperidin-4-yl}propyl)pyrazol-4-yl]-N-{2-[(2R)-1-methylpyrrolidin-2-yl]-1H-pyrrolo[3,2-c]pyridin-6-yl}benzamide] registered an IC50 with MV4-11 cells of at most 100 nM. On MLLT1, the “MLLT1% Degradation @ 0.1 μM” value is “A (Category A: A ≥ 75% degradation)” and the “MLLT1% Degradation @ 1 μM” value is listed as “A (Category A: A ≥ 75% degradation)”.
Molecule `CN1CCC[C@@H]1c1cc2cnc(NC(=O)c3cccc(OCC#Cc4cccc5c4CN(C4CCC(=O)NC4=O)C5=O)c3)cc2[nH]1` (stereo partly drawn) [Example 58, 3-((3-(2-(2,6-dioxopiperidin-3-yl)-1-oxoisoindolin-4-yl)prop-2-yn-1-yl)oxy)-N-(2-((R)-1-methylpyrrolidin-2-yl)-1H-pyrrolo[3,2-c]pyridin-6-yl)benzamide] showed an IC50 in the assay with MV4-11 cells of at most 100 nM. Further, on MLLT1, the “MLLT1% Degradation @ 0.01 μM” value is on record as “B (Category B: 50% ≤ B < 75% degradation)”, the “MLLT1% Degradation @ 0.1 μM” value is recorded as “A (Category A: A ≥ 75% degradation)” and the “MLLT1% Degradation @ 1 μM” value was “C (Category C: 25% ≤ C < 50% degradation)”.
In the same order, the values of `CN1CCC[C@@H]1c1cc2cnc(NC(=O)CCCCCCNc3cccc4c3C(=O)N(C3CCC(=O)NC3=O)C4=O)cc2[nH]1` (stereo partly drawn) [Example 29, 7-{[2-(2,6-dioxopiperidin-3-yl)-1,3-dioxoisoindol-4-yl]amino}-N-{2-[(2R)-1-methylpyrrolidin-2-yl]-1H-pyrrolo[3,2-c]pyridin-6-yl}heptanamide] are at most 100 nM, “D (Category D: D < 25% degradation)”, “C (Category C: 25% ≤ C < 50% degradation)” and “A (Category A: A ≥ 75% degradation)”.
`CN1CCC[C@@H]1c1cc2cnc(NC(=O)c3ccc(CCC#Cc4cccc5c4n(C)c(=O)n5C4CCC(=O)NC4=O)cc3)cc2[nH]1` (stereo partly drawn) [Example 53, 4-(4-(1-(2,6-dioxopiperidin-3-yl)-3-methyl-2-oxo-2,3-dihydro-1H-benzo[d]imidazol-4-yl)but-3-yn-1-yl)-N-(2-((R)-1-methylpyrrolidin-2-yl)-1H-pyrrolo[3,2-c]pyridin-6-yl)benzamide] returned a half-maximal inhibitory concentration (IC50) in the assay with MV4-11 cells of at most 100 nM. At MLLT1, the “MLLT1% Degradation @ 0.01 μM” value is listed as “A (Category A: A ≥ 75% degradation)”, the “MLLT1% Degradation @ 0.1 μM” value is “A (Category A: A ≥ 75% degradation)” and the “MLLT1% Degradation @ 1 μM” value was “B (Category B: 50% ≤ B < 75% degradation)”.
As to `C[C@@H](C#Cc1cccc2c1CN(C1CCC(=O)NC1=O)C2=O)Oc1ccc(C(=O)Nc2cc3[nH]c([C@H]4CCCN4C)cc3cn2)cc1` (stereo partly drawn) [Example 24, 4-(((2S)-4-(2-(2,6-dioxopiperidin-3-yl)-1-oxoisoindolin-4-yl)but-3-yn-2-yl)oxy)-N-(2-((R)-1-methylpyrrolidin-2-yl)-1H-pyrrolo[3,2-c]pyridin-6-yl)benzamide], in the assay on MV4-11 cells, the concentration for half-maximal inhibition (IC50) was at most 100 nM. Moreover, at MLLT1, the “MLLT1% Degradation @ 0.01 μM” value was “A (Category A: A ≥ 75% degradation)”, the “MLLT1% Degradation @ 0.1 μM” value is listed as “A (Category A: A ≥ 75% degradation)” and the “MLLT1% Degradation @ 1 μM” value is reported as “A (Category A: A ≥ 75% degradation)”.
`CN1CCC[C@@H]1c1cc2cnc(NC(=O)c3ccc(-c4cnn(CCCC5CCN(c6cccc7c6CN(C6CCC(=O)NC6=O)C7=O)CC5)c4)cc3)cc2[nH]1` (stereo partly drawn) [Example 35, 4-[1-(3-{1-[2-(2,6-dioxopiperidin-3-yl)-1-oxo-3H-isoindol-4-yl]piperidin-4-yl}propyl)pyrazol-4-yl]-N-{2-[(2R)-1-methylpyrrolidin-2-yl]-1H-pyrrolo[3,2-c]pyridin-6-yl}benzamide] displayed an IC50 in the assay with MV4-11 cells of at most 100 nM. For the same molecule, at MLLT1, the “MLLT1% Degradation @ 0.01 μM” value is “A (Category A: A ≥ 75% degradation)”, the “MLLT1% Degradation @ 0.1 μM” value is “A (Category A: A ≥ 75% degradation)” and the “MLLT1% Degradation @ 1 μM” value is on record as “A (Category A: A ≥ 75% degradation)”.
Consider `CN1CCC[C@@H]1c1cc2cnc(NC(=O)c3ccc(CCCNc4cccc5c4C(=O)N(C4CCC(=O)NC4=O)C5=O)cc3)cc2[nH]1` (stereo partly drawn) [Example 36, 4-(3-{[2-(2,6-dioxopiperidin-3-yl)-1,3-dioxoisoindol-4-yl]amino}propyl)-N-{2-[(2R)-1-methylpyrrolidin-2-yl]-1H-pyrrolo[3,2-c]pyridin-6-yl}benzamide], for which the IC50 in the assay with MV4-11 cells is at most 100 nM. Moreover, on MLLT1, the “MLLT1% Degradation @ 0.01 μM” value is “A (Category A: A ≥ 75% degradation)”, the “MLLT1% Degradation @ 0.1 μM” value is “A (Category A: A ≥ 75% degradation)” and the “MLLT1% Degradation @ 1 μM” value is recorded as “A (Category A: A ≥ 75% degradation)”.
Turning to `CN1CCC[C@@H]1c1cc2cnc(NC(=O)c3ccc(OCC#Cc4cccc5c4CN(C4CCC(=O)NC4=O)C5=O)cc3)cc2[nH]1` (stereo partly drawn) [Example 51, 4-((3-(2-(2,6-dioxopiperidin-3-yl)-1-oxoisoindolin-4-yl)prop-2-yn-1-yl)oxy)-N-(2-((R)-1-methylpyrrolidin-2-yl)-1H-pyrrolo[3,2-c]pyridin-6-yl)benzamide], the half-inhibitory concentration (IC50) with MV4-11 cells was at most 100 nM. For the same molecule, on MLLT1, the “MLLT1% Degradation @ 0.01 μM” value is recorded as “A (Category A: A ≥ 75% degradation)”, the “MLLT1% Degradation @ 0.1 μM” value is given as “A (Category A: A ≥ 75% degradation)” and the “MLLT1% Degradation @ 1 μM” value is given as “A (Category A: A ≥ 75% degradation)”.
For `CN1CCC[C@@H]1c1cc2cnc(NC(=O)c3ccc(CC4CCN(c5cccc6c5C(=O)N(C5CCC(=O)NC5=O)C6=O)CC4)cc3)cc2[nH]1` (stereo partly drawn) [Example 3, 4-((1-(2-(2,6-dioxopiperidin-3-yl)-1,3-dioxoisoindolin-4-yl)piperidin-4-yl)methyl)-N-(2-((R)-1-methylpyrrolidin-2-yl)-1H-pyrrolo[3,2-c]pyridin-6-yl)benzamide], in the assay with MV4-11 cells, the IC50 is at most 100 nM. On MLLT1, the “MLLT1% Degradation @ 0.01 μM” value is given as “C (Category C: 25% ≤ C < 50% degradation)”, the “MLLT1% Degradation @ 0.1 μM” value is “A (Category A: A ≥ 75% degradation)” and the “MLLT1% Degradation @ 1 μM” value is “A (Category A: A ≥ 75% degradation)”.

The values above are taken from patent US20260191968A1, “PROTAC DEGRADERS OF MLLT1 AND/OR MLLT3” (DARK BLUE THERAPEUTICS LTD, priority 2024, published 2026).
